{"source": "patent US20260325481A1", "about": "“THERAPY SELECTION AND TREATMENT OF NEURODEGENERATIVE DISORDERS” (Anavex Life Sciences Corp., priority 2022, published 2026)", "key": {"[1]": {"system": "gene clusters differentially expressed in PDD patients", "experiment": "RNAseq whole blood transcriptomics, gene clusters overall", "set-up": "species or system human", "description": "(§1) In order to gain insights into ANAVEX 2-73 response pathways, during the Phase 2 study, patients' DNA and RNA sequencing were analyzed. Transcriptomic samples of 65 patients enrolled in either High Dose or Mid Dose arms were collected at baseline and at the end of treatment (Week 14). The expression of 14,150 genes was measured. No transformation was applied to the TPM values. Values associated with a with RIN s 4.0 were discarded. The actual dose of ANAVEX 2-73 (blarcamesine) that was given to each patient during the trial was assessed and integrated into the database. To characterize the gene dysregulations, a pathway database was built using an aggregation of public databases including KEGG, Panther, Allen, Brain Atlas, Gene Ontology, and Reactome.\nThe genes were clustered together using WGCNA, starting from their correlation of TPM expression values across samples. Seventeen clusters with size ranging from 13 to 11,190 genes were obtained through this gene clusterisation. The TPM expression values of genes in clusters were then aggregated in a single “eigengene” for each cluster. This eigengene served as a representant of the overall dysregulation of the cluster. […] For each cluster, the contrast ActualDose, i.e. treated vs placebo were evaluated across all timepoints. […] The ratio between cluster size and number of pathways was calculated, and top 2 clusters were retained for further Analysis. […] Known interactions between the genes of the cluster were assessed using STRING database with the parameters of Edge score >0.150, and no text mining edges. […]\nWhole Blood Transcriptomics Analysis (RNAseq) of patients with Parkinson's disease with dementia (PDD) was performed for the ANAVEX®2-73-PDD-001 study (FIG. 1) at two timepoints: Baseline and Week 14 (end of trial). All available RNA samples with […] (RNA integrity number, using 130 samples) were analyzed. The expression of 14,150 genes at these two timepoints were analyzed from both placebo and ANAVEX® 2-73 treated patients. […]"}, "Cluster 2 (962 genes)": {"system": "Cluster 2 (962 genes)", "experiment": "RNAseq whole blood transcriptomics, WGCNA Cluster 2 and pathway analysis", "set-up": "species or system human", "conditions": "for Number of pathways significantly overrepresented in second cluster: among its 317 pathways", "description": "as §1\nThe genes were clustered together using WGCNA, starting from their correlation of TPM expression values across samples. Seventeen clusters with size ranging from 13 to 11,190 genes were obtained through this gene clusterisation. The TPM expression values of genes in clusters were then aggregated in a single “eigengene” for each cluster. This eigengene served as a representant of the overall dysregulation of the cluster. Secondly, a cluster filtering was performed, wherein patients' arm and dose information were taken into account based on mixed effect models. For each cluster, the eigengene was used as target variable of a linear mixed effect model with 3 covariates: ActualDose, Patient, and timepoint. For each cluster, the contrast ActualDose, i.e. treated vs placebo were evaluated across all timepoints. P-values were obtained with Dunnett's test. Regardless of the cluster and pathway, pathways with less than 4 genes in a cluster were removed, to compensate for the large variability of cluster size and corresponding variability of number of pathways identified in each clusters. The ratio between cluster size and number of pathways was calculated, and top 2 clusters were retained for further Analysis. Cluster 1 contained 213 genes (n1=213) and 37 pathways, and Cluster 2 contained 962 genes (n2=962) and 317 pathways. […] Thirdly, the two retained clusters were characterized and underwent pathway analysis. The characterization and analysis were applied to all the genes of the cluster (whole cluster), and to the genes of the clusters that are known to have biological interactions (reduced cluster). In the whole cluster analysis, overrepresented pathways were identified using EnrichR package with the parameters of Fisher's adjusted p-value p<0.05 (Benjamini-Hochberg adjustment for multiple testing) and minimum pathway size 20. In the reduced cluster analysis, genes that have no interaction with any other genes of the cluster were discarded, resulting in a reduced cluster. Pathway analysis was performed on these reduced clusters. False Discovery Rate with adjustment for multiple testing (Benjamini-Hochberg procedure) was used to characterize pathways' over-representation. Known interactions between the genes of the cluster were assessed using STRING database with the parameters of Edge score >0.150, and no text mining edges. Known interactions were obtained from public databases, such as KEGG, Panther, Allen, Brain Atlas, Gene Ontology, and Reactome.\nWhole Blood Transcriptomics Analysis (RNAseq) of patients with Parkinson's disease with dementia (PDD) was performed for the ANAVEX®2-73-PDD-001 study (FIG. 1) at two timepoints: Baseline and Week 14 (end of trial). All available RNA samples with […] (RNA integrity number, using 130 samples) were analyzed. The expression of 14,150 genes at these two timepoints were analyzed from both placebo and ANAVEX® 2-73 treated patients.\nThe above method was performed as illustrated in FIG. 2B. […] Then, the cluster's eigengene3 (one of a set of a genes matrix that tabulates the mRNA or gene expression of the genes across the sample) was used as summary of expression level of the cluster. […]"}}, "note": "Where two headings read alike, the source gives them in different places.", "data": [{"compound": "CN(C)CC1CCOC1(c1ccccc1)c1ccccc1.Cl", "note": "(stereo not shown) [ANAVEX2-73, tetrahydro-N,N-dimethyl-2,2-diphenyl-3-furanmethanamine hydrochloride]", "values": [{"measurement": "Number of clusters with significant association between treatment and estimated marginal mean expression", "setting": "[1]; Dunnett's test, linear mixed-effect model", "value": 6, "unit": "clusters"}, {"measurement": "Dysregulations of Clusters 1 and 2", "setting": "[1]; highest dose", "value": "significantly linked to the highest dose"}, {"measurement": "Regulation of both identified clusters", "setting": "[1]; treated patients compared to placebo, 14 weeks", "value": "up-regulated"}, {"measurement": "Overlap", "setting": "Cluster 2 (962 genes)", "value": "45/273"}, {"measurement": "Number of pathways significantly overrepresented in second cluster", "setting": "Cluster 2 (962 genes); listed as ANAVEX 2-73, hydrochloride", "value": 15, "unit": "pathways"}, {"measurement": "Number of pathways significantly overrepresented in second cluster", "setting": "Cluster 2 (962 genes); listed as ANAVEX® 2-73, hydrochloride", "value": 10, "unit": "pathways"}, {"measurement": "Overlap", "setting": "Cluster 2 (962 genes); genes of pathway in Cluster 2/genes in pathway, KEGG 2021, Alzheimer disease", "value": "47/369"}, {"measurement": "Overlap", "setting": "Cluster 2 (962 genes); genes of pathway in Cluster 2/genes in pathway, KEGG 2021, Amyotrophic lateral sclerosis", "value": "46/364"}, {"measurement": "Overlap", "setting": "Cluster 2 (962 genes); genes of pathway in Cluster 2/genes in pathway, KEGG 2021, Cardiac muscle contraction", "value": "11/87"}, {"measurement": "Overlap", "setting": "Cluster 2 (962 genes); genes of pathway in Cluster 2/genes in pathway, KEGG 2021, Coronavirus disease", "value": "80/232"}, {"measurement": "Overlap", "setting": "Cluster 2 (962 genes); genes of pathway in Cluster 2/genes in pathway, KEGG 2021, Diabetic cardiomyopathy", "value": "36/203"}, {"measurement": "Overlap", "setting": "Cluster 2 (962 genes); genes of pathway in Cluster 2/genes in pathway, KEGG 2021, Huntington disease", "value": "48/306"}, {"measurement": "Overlap", "setting": "Cluster 2 (962 genes); genes of pathway in Cluster 2/genes in pathway, KEGG 2021, Non-alcoholic fatty liver disease", "value": "34/155"}, {"measurement": "Overlap", "setting": "Cluster 2 (962 genes); genes of pathway in Cluster 2/genes in pathway, KEGG 2021, OProteasome", "value": "9/46"}, {"measurement": "Overlap", "setting": "Cluster 2 (962 genes); genes of pathway in Cluster 2/genes in pathway, KEGG 2021, Oxidative phosphorylation", "value": "36/133"}, {"measurement": "Overlap", "setting": "Cluster 2 (962 genes); genes of pathway in Cluster 2/genes in pathway, KEGG 2021, Parkinson disease", "value": "46/249"}, {"measurement": "Overlap", "setting": "Cluster 2 (962 genes); genes of pathway in Cluster 2/genes in pathway, KEGG 2021, Pathways of neurodegeneration", "value": "50/475"}, {"measurement": "Overlap", "setting": "Cluster 2 (962 genes); genes of pathway in Cluster 2/genes in pathway, KEGG 2021, Retrograde endocannabinoid signaling", "value": "24/148"}, {"measurement": "Overlap", "setting": "Cluster 2 (962 genes); genes of pathway in Cluster 2/genes in pathway, KEGG 2021, Ribosome", "value": "96/158"}, {"measurement": "Overlap", "setting": "Cluster 2 (962 genes); genes of pathway in Cluster 2/genes in pathway, KEGG 2021, Thermogenesis", "value": "45/232"}, {"measurement": "Overlap", "setting": "Cluster 2 (962 genes); genes of term in Cluster 2/genes in term, Allen Brain Atlas, Anterior olfactory nucleus", "value": "27/300"}, {"measurement": "Overlap", "setting": "Cluster 2 (962 genes); genes of term in Cluster 2/genes in term, Allen Brain Atlas, Anterior olfactory nucleus, external part", "value": "34/300"}, {"measurement": "Overlap", "setting": "Cluster 2 (962 genes); genes of term in Cluster 2/genes in term, Allen Brain Atlas, Anterior olfactory nucleus, layer 1", "value": "36/300"}, {"measurement": "Overlap", "setting": "Cluster 2 (962 genes); genes of term in Cluster 2/genes in term, Allen Brain Atlas, Main olfactory bulb", "value": "31/300"}, {"measurement": "Overlap", "setting": "Cluster 2 (962 genes); genes of term in Cluster 2/genes in term, Allen Brain Atlas, Main olfactory bulb, glomerular layer", "value": "36/300"}, {"measurement": "Overlap", "setting": "Cluster 2 (962 genes); genes of term in Cluster 2/genes in term, Allen Brain Atlas, Main olfactory bulb, inner plexiform layer", "value": "28/300"}, {"measurement": "Overlap", "setting": "Cluster 2 (962 genes); genes of term in Cluster 2/genes in term, Allen Brain Atlas, Main olfactory bulb, mitral layer", "value": "28/300"}, {"measurement": "Overlap", "setting": "Cluster 2 (962 genes); genes of term in Cluster 2/genes in term, Allen Brain Atlas, Main olfactory bulb, outer plexiform layer", "value": "30/300"}, {"measurement": "Overlap", "setting": "Cluster 2 (962 genes); genes of term in Cluster 2/genes in term, Allen Brain Atlas, OB olfactory fiber layer", "value": "33/300"}, {"measurement": "Overlap", "setting": "Cluster 2 (962 genes); genes of term in Cluster 2/genes in term, Allen Brain Atlas, Olfactory areas", "value": "27/300"}, {"measurement": "Overlap", "setting": "Cluster 2 (962 genes); genes of term in Cluster 2/genes in term, Allen Brain Atlas, Olfactory bulb, principal part", "value": "32/300"}, {"measurement": "Cluster 2 eigengene expression", "setting": "Cluster 2 (962 genes); high oral dose vs placebo", "value": "significantly increased"}, {"measurement": "Number of brain areas significantly overrepresented in second cluster", "setting": "Cluster 2 (962 genes); n2=962 genes", "value": 74, "unit": "brain areas"}, {"measurement": "Number of overrepresented brain areas linked to the olfactory bulb", "setting": "Cluster 2 (962 genes); out of 74", "value": 11, "unit": "brain areas"}]}]}
